How the values were obtained:
Type in all cases: functional
Conditions in all cases: read-out: Activity
[1] = system: MDA-MB-468; assay: Cytotoxicity against human MDA-MB-468 cells assessed as cell viability at 10 uM incubated for 48 hrs by sulforhodamine B assay relative to control
[2] = system: BT-549; assay: Cytotoxicity against human BT-549 cells assessed as cell viability at 10 uM incubated for 48 hrs by sulforhodamine B assay relative to control
[3] = system: Hs-578T; assay: Cytotoxicity against human HS-578T cells assessed as cell viability at 10 uM incubated for 48 hrs by sulforhodamine B assay relative to control
[4] = system: MDA-MB-231; assay: Cytotoxicity against human MDA-MB-231 cells assessed as cell viability at 10 uM incubated for 48 hrs by sulforhodamine B assay relative to control
[5] = system: DU-145; assay: Cytotoxicity against human DU-145 cells assessed as cell viability at 10 uM incubated for 48 hrs by sulforhodamine B assay relative to control
[6] = system: PC-3; assay: Cytotoxicity against human PC-3 cells assessed as cell viability at 10 uM incubated for 48 hrs by sulforhodamine B assay relative to control
[7] = system: TK-10; assay: Cytotoxicity against human TK-10 cells assessed as cell viability at 10 uM incubated for 48 hrs by sulforhodamine B assay relative to control
[8] = system: SN12C; assay: Cytotoxicity against human SN12C cells assessed as cell viability at 10 uM incubated for 48 hrs by sulforhodamine B assay relative to control
[9] = system: ACHN; assay: Cytotoxicity against human ACHN cells assessed as cell viability at 10 uM incubated for 48 hrs by sulforhodamine B assay relative to control
[10] = system: 786-0; assay: Cytotoxicity against human 786-0 cells assessed as cell viability at 10 uM incubated for 48 hrs by sulforhodamine B assay relative to control
[11] = system: NCI/ADR-RES; assay: Cytotoxicity against human NCI/ADR-RES cells assessed as cell viability at 10 uM incubated for 48 hrs by sulforhodamine B assay relative to control
[12] = system: OVCAR-8; assay: Cytotoxicity against human OVCAR-8 cells assessed as cell viability at 10 uM incubated for 48 hrs by sulforhodamine B assay relative to control
[13] = system: OVCAR-5; assay: Cytotoxicity against human OVCAR-5 cells assessed as cell viability at 10 uM incubated for 48 hrs by sulforhodamine B assay relative to control
[14] = system: OVCAR-4; assay: Cytotoxicity against human OVCAR-4 cells assessed as cell viability at 10 uM incubated for 48 hrs by sulforhodamine B assay relative to control
[15] = system: OVCAR-3; assay: Cytotoxicity against human OVCAR-3 cells assessed as cell viability at 10 uM incubated for 48 hrs by sulforhodamine B assay relative to control
[16] = system: IGROV-1; assay: Cytotoxicity against human IGROV-1 cells assessed as cell viability at 10 uM incubated for 48 hrs by sulforhodamine B assay relative to control
[17] = system: UACC-62; assay: Cytotoxicity against human UACC-62 cells assessed as cell viability at 10 uM incubated for 48 hrs by sulforhodamine B assay relative to control
[18] = system: SK-MEL-28; assay: Cytotoxicity against human SK-MEL-28 cells assessed as cell viability at 10 uM incubated for 48 hrs by sulforhodamine B assay relative to control
[19] = system: MDA-MB-435; assay: Cytotoxicity against human MDA-MB-435 cells assessed as cell viability at 10 uM incubated for 48 hrs by sulforhodamine B assay relative to control
[20] = system: M14; assay: Cytotoxicity against human M14 cells assessed as cell viability at 10 uM incubated for 48 hrs by sulforhodamine B assay relative to control
[21] = system: CCRF-CEM; assay: Cytotoxicity against human CCRF-CEM cells assessed as cell viability at 10 uM incubated for 48 hrs by sulforhodamine B assay relative to control
[22] = system: HL-60(TB); assay: Cytotoxicity against human HL-60(TB) cells assessed as cell viability at 10 uM incubated for 48 hrs by sulforhodamine B assay relative to control
[23] = system: K562; assay: Cytotoxicity against human K562 cells assessed as cell viability at 10 uM incubated for 48 hrs by sulforhodamine B assay relative to control
[24] = system: MOLT-4; assay: Cytotoxicity against human MOLT-4 cells assessed as cell viability at 10 uM incubated for 48 hrs by sulforhodamine B assay relative to control
[25] = system: RPMI-8226; assay: Cytotoxicity against human RPMI-8226 cells assessed as cell viability at 10 uM incubated for 48 hrs by sulforhodamine B assay relative to control
[26] = system: SR; assay: Cytotoxicity against human SR cells assessed as cell viability at 10 uM incubated for 48 hrs by sulforhodamine B assay relative to control
[27] = system: A549; assay: Cytotoxicity against human A549 cells assessed as cell viability at 10 uM incubated for 48 hrs by sulforhodamine B assay relative to control
[28] = system: EKVX; assay: Cytotoxicity against human EKVX cells assessed as cell viability at 10 uM incubated for 48 hrs by sulforhodamine B assay relative to control
[29] = system: HOP-62; assay: Cytotoxicity against human HOP-62 cells assessed as cell viability at 10 uM incubated for 48 hrs by sulforhodamine B assay relative to control
[30] = system: HOP-92; assay: Cytotoxicity against human HOP-92 cells assessed as cell viability at 10 uM incubated for 48 hrs by sulforhodamine B assay relative to control
[31] = system: NCI-H226; assay: Cytotoxicity against human NCI-H226 cells assessed as cell viability at 10 uM incubated for 48 hrs by sulforhodamine B assay relative to control
[32] = system: NCI-H23; assay: Cytotoxicity against human NCI-H23 cells assessed as cell viability at 10 uM incubated for 48 hrs by sulforhodamine B assay relative to control
[33] = system: NCI-H460; assay: Cytotoxicity against human NCI-H460 cells assessed as cell viability at 10 uM incubated for 48 hrs by sulforhodamine B assay relative to control
[34] = system: NCI-H522; assay: Cytotoxicity against human NCI-H522 cells assessed as cell viability at 10 uM incubated for 48 hrs by sulforhodamine B assay relative to control
[35] = system: COLO 205; assay: Cytotoxicity against human COLO 205 cells assessed as cell viability at 10 uM incubated for 48 hrs by sulforhodamine B assay relative to control
[36] = system: KM12; assay: Cytotoxicity against human KM12 cells assessed as cell viability at 10 uM incubated for 48 hrs by sulforhodamine B assay relative to control
[37] = system: SW-620; assay: Cytotoxicity against human SW-620 cells assessed as cell viability at 10 uM incubated for 48 hrs by sulforhodamine B assay relative to control
[38] = system: SF-268; assay: Cytotoxicity against human SF-268 cells assessed as cell viability at 10 uM incubated for 48 hrs by sulforhodamine B assay relative to control
[39] = system: SNB-19; assay: Cytotoxicity against human SNB-19 cells assessed as cell viability at 10 uM incubated for 48 hrs by sulforhodamine B assay relative to control
[40] = system: SNB-75; assay: Cytotoxicity against human SNB-75 cells assessed as cell viability at 10 uM incubated for 48 hrs by sulforhodamine B assay relative to control
[41] = system: U-251; assay: Cytotoxicity against human U-251 cells assessed as cell viability at 10 uM incubated for 48 hrs by sulforhodamine B assay relative to control

O=C(NCCNc1nccc(-c2c(-c3cccc(F)c3)nc3sccn23)n1)C1CCCCC1
viability at 10 µM [1]: 59.5% | viability at 10 µM [2]: 93.9% | viability at 10 µM [3]: 91.8% | viability at 10 µM [4]: 104% | viability at 10 µM [5]: 81.6% | viability at 10 µM [6]: 75.2% | viability at 10 µM [7]: 88.6% | viability at 10 µM [8]: 67.5% | viability at 10 µM [9]: 67.1% | viability at 10 µM [10]: 69.1% | viability at 10 µM [11]: 66.9% | viability at 10 µM [12]: 56.9% | viability at 10 µM [13]: 141% | viability at 10 µM [14]: 71.8% | viability at 10 µM [15]: 76.3% | viability at 10 µM [16]: 45.1% | viability at 10 µM [17]: 58.4% | viability at 10 µM [18]: 106% | viability at 10 µM [19]: 65.5% | viability at 10 µM [20]: 73.6% | viability at 10 µM [21]: 70% | viability at 10 µM [22]: 122% | viability at 10 µM [23]: 74.2% | viability at 10 µM [24]: 55.4% | viability at 10 µM [25]: 81.6% | viability at 10 µM [26]: 91% | viability at 10 µM [27]: 78.8% | viability at 10 µM [28]: 80.4% | viability at 10 µM [29]: 109% | viability at 10 µM [30]: 135% | viability at 10 µM [31]: 60.9% | viability at 10 µM [32]: 97% | viability at 10 µM [33]: 91.6% | viability at 10 µM [34]: 79.3% | viability at 10 µM [35]: 53.5% | viability at 10 µM [36]: 81.6% | viability at 10 µM [37]: 114% | viability at 10 µM [38]: 77.3% | viability at 10 µM [39]: 96% | viability at 10 µM [40]: 88.6% | viability at 10 µM [41]: 90.5%

O=S(=O)(NCCCNc1nccc(-c2c(-c3cccc(F)c3)nc3sccn23)n1)c1cccc2ccccc12
viability at 10 µM [1]: 59.3% | viability at 10 µM [2]: 65% | viability at 10 µM [3]: 55.9% | viability at 10 µM [4]: 4.05% | viability at 10 µM [5]: 49.9% | viability at 10 µM [6]: 41.2% | viability at 10 µM [7]: 71.7% | viability at 10 µM [8]: 46.9% | viability at 10 µM [9]: 34.7% | viability at 10 µM [10]: 52.9% | viability at 10 µM [11]: 47.1% | viability at 10 µM [12]: 38.5% | viability at 10 µM [13]: 80.9% | viability at 10 µM [14]: 40.1% | viability at 10 µM [15]: 68.7% | viability at 10 µM [16]: 22.3% | viability at 10 µM [17]: 24.3% | viability at 10 µM [18]: 77.5% | viability at 10 µM [19]: 22.6% | viability at 10 µM [20]: 42.7% | viability at 10 µM [21]: 38.5% | viability at 10 µM [22]: 53.9% | viability at 10 µM [23]: 15.2% | viability at 10 µM [24]: 29.3% | viability at 10 µM [25]: 44.9% | viability at 10 µM [26]: 62% | viability at 10 µM [27]: 45.6% | viability at 10 µM [28]: 56.1% | viability at 10 µM [29]: 80.7% | viability at 10 µM [30]: 94.6% | viability at 10 µM [31]: 36.8% | viability at 10 µM [32]: 66.2% | viability at 10 µM [33]: 19.9% | viability at 10 µM [34]: 56.3% | viability at 10 µM [35]: 21.5% | viability at 10 µM [36]: 26% | viability at 10 µM [37]: 42.1% | viability at 10 µM [38]: 44.5% | viability at 10 µM [39]: 69% | viability at 10 µM [40]: 86.5% | viability at 10 µM [41]: 59.1%
